Assay results from patent publication US6645490B2, “Chimeric proteins with cell-targeting specificity and apoptosis-inducing activities” (priority 1998, dated 2003).

Experiments:
[1] = tested on: Human peripheral blood lymphocytes; experiment: Assay for identifying apoptotic cells, FACS of fresh lymphocytes; format: cell-based; parameters: unit not given here; details: for M1-2 / M1 / M2: Experiment No. 1; for M1 / M2 / UL / UR: mean of duplicates; for UL + UR / UL / UR: Experiment No. 2
Experimental: Human peripheral blood lymphocytes from healthy donors were separated using Ficoll-Isopaque gradient (1.077) (Pharmacia) and used immediately. Lymphocytes were cultured in 5% CO2 in air in RPMI 1640 medium supplemented with 10% fetal calf serum, 200 μg/ml L-glutamate, 50 μg/ml penicillin, 50 μg/ml streptomycin, 50 μg/ml glutamine and 5×10^−5 M 2-β mercaptoethanol. Increasing concentrations of IL2-Bax (insoluble fraction, 6M Gu-HCl treated) were added to the lymphocytes for 22 hr. Cells were then stained with:
A. Propidium Iodide (PI, 3.5 μg/ml)
B. Propidium Iodide with a detergent for measuring cell cycle (0.7 ml of the PI buffer: 50 μg/ml PI, 0.1% Nacitrate, 0.1% Triton×100, were added to a cell pellet of ˜10^6 cells). Cells were then analyzed by FACS.

[2] = tested on: CEM cells; experiment: Assay for identifying apoptotic cells, FACS (PI fluorescence of nuclei); format: cell-based, human; details: CEM cells lacking IL2R expression; FIGS. 9A-9C
Experimental: (§1) HUT102 cells (target T cells) and CEM cells (non-target T cells) were incubated overnight with increasing concentrations of IL2-Bax. The 200×g centrifuged cell pellet was fixed in 2 ml cold 70% ethanol at 4° C. for 60 min. The cells were then centrifuged, washed in 1 ml PBS and resuspended in 0.5 ml PBS. 0.5 ml RNAse (Type I-A, Sigma, St. Louis, Mo., 1 mg/ml in PBS) was added to the sample, followed by gentle mixing with 1 ml PI (Sigma, 100 μg/ml PBS) solution. The mixed cells were incubated in the dark at room temperature for 15 min. and kept at 4° C. in the dark until measured. The PI fluorescence of the individual nuclei was measured using FACS flow cytometer. The forward scatter and side scatter of particles were simultaneously measured. Cell debris were excluded from analysis by appropriately raising the forward scatter threshold (Nicoletti et al., 1991, J. Immunol. Meth. 139:271-279).

[3] = tested on: HUT102 cells; experiment: as above; format: cell-based, human; details: highest concentration tested, overnight
Experimental: as §1

[4] = tested on: MT-1 cells; experiment: Cytotoxicity assay, [3H] leucine incorporation (inhibition of protein synthesis); format: cell-based, human; details: MT-1, IL2R-expressing; FIG. 5A
Experimental: (§2) Cells (10^4 in 0.2 ml culture medium) were seeded in 96-well microplates, followed by the addition of various concentrations of the chimeric protein (diluted with 0.25% BSA in PBS). After a 24 hour incubation, [^3H] leucine (2-5 uci/well) were added for 6-13 hr. The plates were then stored at −70° C. for several hours, followed by quick thawing at 37° C. This step was omitted with targets cells growing in suspension. The cells were harvested on filters and the incorporated radioactivity was measured with a β counter. Results were expressed as the percent incorporation of the control experiments in which the cells were not exposed to any protein. All assays were carried out in triplicates.
(§3) The cytotoxic activity of the IL2-Bax chimeric protein was tested on HUT102 and MT-1 cells (human T-cell lines), and 2B4 cells (mouse T-cells); all known to express the high affinity receptor for IL2, by a quantitative assay, in which inhibition of protein synthesis was measured. The soluble and insoluble fractions generated from treatment under three different conditions were tested in cytotoxicity assays as described by Lorberboum-Galski et al. (1988, J. Biol. Chem. 263:18650-18656). […] This may be attributed to the different number of IL2R expressed on each cell line. […]

[5] = tested on: HUT102 cells; experiment: as above; format: cell-based, human; details: HUT102, IL2R-expressing; FIG. 5A
Experimental: as §2, §3

[6] = tested on: 2B4 cells; experiment: as above; format: cell-based, mouse; details: 2B4, IL2R-expressing; FIG. 5A
Experimental: as §2, §3

[7] = tested on: CEM cells; experiment: as above; format: cell-based, human; details: lacking the IL2R, FIG. 5B
Experimental: as §2
(§4) The effects of IL2-Bax were also tested on various IL2R negative cells: CEM cells (a human T-cell line lacking the IL2R) and Km3 (a human non-T, non-B stem cell line). […] Since the fraction treated with Gu-HCl was active without any non-specific cytotoxicity, this fraction was further used in subsequent experiments.

[8] = tested on: Km3; experiment: as above; format: cell-based, human; details: Km3, IL2R negative; FIG. 5B
Experimental: as §2, §4

In the case of `C[C@@H]1C[C@H]2[C@@H]3CCC4=CC(=O)C=C[C@]4(C)[C@@]3(F)[C@@H](O)C[C@]2(C)[C@@]1(O)C(=O)CO` [dexamethasone, reference compound], the M1-2 ([1]; dexamethasone (10^-7 M)) is reported as 6.7, the M1 ([1]; dexamethasone (10^-7 M)) is reported as 9.5 and the M2 ([1]; dexamethasone (10^-7 M)) is reported as 2.8.

In the case of IL2-Bax, the “Increase in the apoptotic cell population” value [2] is reported as “did not show an increase in the apoptotic cell population”, the “Increase in the percentage of the apoptotic-cell population (sub-G1, M1)” value [3] is reported as 3.6 fold and the “Cytotoxic activity (inhibition of protein synthesis)” value [4] is reported as “responsive to the chimeric protein in a dose dependent manner”. For the same compound, the “Cytotoxic activity (inhibition of protein synthesis)” value [5] was “responsive to the chimeric protein in a dose dependent manner”, the M1-2 ([1]; 1 μg, 22 hr) was 13.5 and the M1 ([1]; 1 μg, 22 hr) was 17.5. For the same compound, the M2 ([1]; 1 μg, 22 hr) was 4, the M1-2 ([1]; 5 μg, 22 hr) was 20 and the M1 ([1]; 5 μg, 22 hr) was 24.3. It also gave an M2 ([1]; 5 μg, 22 hr) of 4.3, an M1-2 ([1]; 10 μg, 22 hr) of 35 and an M1 ([1]; 10 μg, 22 hr) of 42.1. The M2 ([1]; 10 μg, 22 hr) was 9.1, the “UL + UR” value ([1]; 1 μg, 22 hr) was 10.54 and the UL ([1]; 1 μg, 22 hr) was 4.98. The UR ([1]; 1 μg, 22 hr) was 5.56, the “UL + UR” value ([1]; 10 μg, 22 hr) was 31.55 and the UL ([1]; 10 μg, 22 hr) was 14.71. The UR ([1]; 10 μg, 22 hr) was 16.84, the “Cytotoxic activity (inhibition of protein synthesis)” value [6] was “responsive to the chimeric protein in a dose dependent manner” and the “Cytotoxic activity (inhibition of protein synthesis)” value [7] was “unaffected”. The “Cytotoxic activity (inhibition of protein synthesis)” value [8] was “unaffected”.
